Laboratory results as given in paper PMC12457599, “Targeting Acinetobacter baumannii lipase by coniferous species through metabolomics supported approach” (Scientific Reports, 2025).

Experiments:
[1] = test system: Staphylococcus aureus lipases; parameters: method as in PMID 17559400; details: cited from earlier work
A. baumannii (AB5075) = test: Growth curve assay
[2] = test system: A. baumannii strain (AB5075); test: Broth microdilution MIC; details: Acinetobacter baumannii, 24 h
[3] = test system: A. baumannii strain (AB5075); test: Tetrazolium/formazan (TTC) assay, effective inhibitory concentration; type: cell-based, Acinetobacter baumannii

Compound | IC50 [1] [µM] | growth extent versus DMSO (A. baumannii (AB5075); 64 µg/mL) | growth extent versus DMSO (A. baumannii (AB5075); 128 µg/mL, mid-logarithmic and early stationary phases) | MIC [2] [µg/mL] | EIC ([3]; TTC assay, lowest concentration preventing red color formation, tested 420–640 µg/mL) [µg/mL] | direct antimicrobial activity against A. baumannii ([3]; summary of MIC and EIC)
CC(C)=CCC/C(C)=C/CC/C(C)=C/CO [Farnesol] | 570 | – | – | – | – | –
CCCCCCCCCCC[C@@H](C[C@@H]1OC(=O)[C@H]1CCCCCC)OC(=O)[C@H](CC(C)C)NC=O [Orlistat, orlistat] | – | not | significant reduction in growth extent | > 128 | 640 | minimal direct antimicrobial activity
